Experimental data taken from publication PMC5363373, “Zirconium tetraazamacrocycle complexes display extraordinary stability and provide a new strategy for zirconium-89-based radiopharmaceutical development” (Chemical Science, 2016).

Key:
[1] = In vitro metal competition study; format: physicochemical; settings: PBS pH 7.4, 37 C
Description: In vitro Metal Competition study. To a solution of metal cations [iron (III) chloride, cobalt (II) chloride, zinc (II) chloride, copper (II) chloride, magnesium (II) chloride, gallium (III) nitrate, gadolinium (III) chloride] (1 mM, 200 µL), was added 89Zr-labeled complex (0.1 mM, 10 µL, 80 μCi, 2.96 MBq) in PBS, pH 7.4. The resulting solutions (n = 3) were incubated at 37 °C for 7 days in a thermomixer. Dissociation of 89Zr from 89Zr-complexes was monitored by radio-TLC at 2 h, 1 d, 4 d and 7 d time point. All studies were performed in triplicate.

[2] = In vitro EDTA challenge study; format: physicochemical
Description: In vitro EDTA challenge study. In vitro EDTA challenge study was carried out by adding 10 µL of each 89Zr-labeled complex (70 μCi, 2.59 MBq) to 500 µL of EDTA (10 mM, 50 mM and 100 mM: pH 5 and pH 7) with a 1:100, 1:500, and 1:1000 ratio of ligand/EDTA. The solutions (n=4) were incubated at 37 °C for 7 days in a thermomixer. Samples were analyzed at 30 min, 1 h, 3 h, 6 h, 1 d, 3 d, 5 d and 7 d post administration to EDTA by radio-TLC using Varian ITLC-SA strips and 0.1 M EDTA (pH 5) as the mobile phase and gamma counting using an energy window of 500-1500 keV and standard protocols .

[3] = In vitro serum stability (radio-ITLC); format: in vitro ADME; settings: 37 C, after 7 days
Description: In vitro serum stability. In vitro serum stability was carried out by adding 10 µL of each 89Zr-labeled complex (70 μCi, 2.59 MBq) to 500 µL of human serum. The solutions (n=4) were incubated at 37 °C for 7 days and were analyzed daily for 1 week by radio -TLC using Varian ITLC-SA strips and 0.1 M EDTA (pH 5) as the mobile phase and gamma counting using an energy window of 500-1500 keV and standard protocols . Serum samples were also analyzed after 7 days by size exclusion chromatography (SEC) using a Superdex 200 10/300 GLTM column (GE Healthcare Life Sciences, Piscataway, NJ) and phosphate buffered saline (PBS) as eluent with a flow rate of 0.5 mL/min.
Figure S30. Radio-ITLC of 89Zr-DOTA solution in human serum at 37 °C after 0 h (a) and 7 days (b). […]

Biodistribution studies = format: in vivo, female NIH Swiss mice; settings: mice, over the 72 h experiment
Description: Biodistribution Studies. Biodistribution studies were conducted using a modified literature procedure. 7 Briefly, female NIH Swiss mice (6-8 wk old, n=6) were injected with each 89Zr-labeled complex (0.55 MBq (15 μCi)/mouse) via the tail vein, and sacrificed at 2, 4, 24, 48, 72 h post-injection. Organs and tissues of interest were excised, weighted, and counted on a Perkin Elmer 2480 Wizard® gamma counter (Waltham, MA). The percent injected dose per gram (%ID/g) and percent injected dose per organ (%ID/organ) were calculated by comparison to a weighed, counted standard for each group (Tables S9 – S12).
Statistical Methods. All of the data are presented as mean±SD or mean (95% Confidence Interval). For statistical classification a student’s t test (two-tailed, unpaired) was performed using GraphPad Prism (San Diego, CA). Any p<0.05 was considered significant.

% Intact of 89Zr-complexes ([1]; Co2+, 2 h): 92.6 ± 0.5% | % Intact of 89Zr-complexes ([1]; Co2+, 1 d): 88.6 ± 0.3% | % Intact of 89Zr-complexes ([1]; Co2+, 4 d): 85.8 ± 0.4% | % Intact of 89Zr-complexes ([1]; Co2+, 7 d): 80.9 ± 1.0% | % Intact of 89Zr-complexes ([1]; Cu2+, 2 h): 91.9 ± 0.1% | % Intact of 89Zr-complexes ([1]; Cu2+, 1 d): 86.7 ± 0.7% | % Intact of 89Zr-complexes ([1]; Cu2+, 4 d): 80.5 ± 0.8% | % Intact of 89Zr-complexes ([1]; Cu2+, 7 d): 74.1 ± 1.2% | % Intact of 89Zr-complexes ([1]; Fe3+, 2 h): 92.4 ± 0.5% | % Intact of 89Zr-complexes ([1]; Fe3+, 1 d): 89.8 ± 0.2% | % Intact of 89Zr-complexes ([1]; Fe3+, 4 d): 87.2 ± 0.8% | % Intact of 89Zr-complexes ([1]; Fe3+, 7 d): 85.8 ± 0.8% | % Intact of 89Zr-complexes ([1]; Ga3+, 2 h): 92.9 ± 0.7% | % Intact of 89Zr-complexes ([1]; Ga3+, 1 d): 87.9 ± 0.7% | % Intact of 89Zr-complexes ([1]; Ga3+, 4 d): 86.6 ± 2.3% | % Intact of 89Zr-complexes ([1]; Ga3+, 7 d): 80.3 ± 0.4% | % Intact of 89Zr-complexes ([1]; Gd3+, 2 h): 93.9 ± 0.3% | % Intact of 89Zr-complexes ([1]; Gd3+, 1 d): 90.6 ± 0.3% | % Intact of 89Zr-complexes ([1]; Gd3+, 4 d): 88.8 ± 0.6% | % Intact of 89Zr-complexes ([1]; Gd3+, 7 d): 86.3 ± 0.1% | % Intact of 89Zr-complexes ([1]; Mg2+, 2 h): 93.6 ± 1.0% | % Intact of 89Zr-complexes ([1]; Mg2+, 1 d): 90.5 ± 0.5% | % Intact of 89Zr-complexes ([1]; Mg2+, 4 d): 87.4 ± 0.9% | % Intact of 89Zr-complexes ([1]; Mg2+, 7 d): 93.1 ± 0.8% | % Intact of 89Zr-complexes ([1]; Zn2+, 2 h): 94.1 ± 0.5% | % Intact of 89Zr-complexes ([1]; Zn2+, 1 d): 89.4 ± 1.9% | % Intact of 89Zr-complexes ([1]; Zn2+, 4 d): 71.9 ± 1.7% | % Intact of 89Zr-complexes ([1]; Zn2+, 7 d): 57.0 ± 1.8% | % Intact of 89Zr-complexes ([2]; EDTA 100-fold, pH 5.0, 37 C, 1 h): 97.7 ± 0.2% | % Intact of 89Zr-complexes ([2]; EDTA 100-fold, pH 5.0, 37 C, 1 d): 84.4 ± 0.9% | % Intact of 89Zr-complexes ([2]; EDTA 100-fold, pH 5.0, 37 C, 3 d): 67.6 ± 0.9% | % Intact of 89Zr-complexes ([2]; EDTA 100-fold, pH 5.0, 37 C, 5 d): 49.6 ± 0.6% | % Intact of 89Zr-complexes ([2]; EDTA 100-fold, pH 5.0, 37 C, 7 d): 42.3 ± 1.2% | % Intact of 89Zr-complexes ([2]; EDTA 100-fold, pH 7.0, 37 C, 1 h): 99.0 ± 0.2% | % Intact of 89Zr-complexes ([2]; EDTA 100-fold, pH 7.0, 37 C, 1 d): 90.9 ± 0.8% | % Intact of 89Zr-complexes ([2]; EDTA 100-fold, pH 7.0, 37 C, 3 d): 86.1 ± 1.1% | % Intact of 89Zr-complexes ([2]; EDTA 100-fold, pH 7.0, 37 C, 5 d): 75.7 ± 0.8% | % Intact of 89Zr-complexes ([2]; EDTA 100-fold, pH 7.0, 37 C, 7 d): 72.1 ± 2.0% | % Intact of 89Zr-complexes ([2]; EDTA 500-fold, pH 5.0, 37 C, 1 h): 97.5 ± 0.6% | % Intact of 89Zr-complexes ([2]; EDTA 500-fold, pH 5.0, 37 C, 1 d): 80.0 ± 1.2% | % Intact of 89Zr-complexes ([2]; EDTA 500-fold, pH 5.0, 37 C, 3 d): 47.0 ± 0.4% | % Intact of 89Zr-complexes ([2]; EDTA 500-fold, pH 5.0, 37 C, 5 d): 22.8 ± 1.8% | % Intact of 89Zr-complexes ([2]; EDTA 500-fold, pH 5.0, 37 C, 7 d): 12.2 ± 1.5% | % Intact of 89Zr-complexes ([2]; EDTA 500-fold, pH 7.0, 37 C, 1 h): 98.5 ± 0.2% | % Intact of 89Zr-complexes ([2]; EDTA 500-fold, pH 7.0, 37 C, 1 d): 90.8 ± 0.9% | % Intact of 89Zr-complexes ([2]; EDTA 500-fold, pH 7.0, 37 C, 3 d): 77.5 ± 1.4% | % Intact of 89Zr-complexes ([2]; EDTA 500-fold, pH 7.0, 37 C, 5 d): 66.6 ± 0.5% | % Intact of 89Zr-complexes ([2]; EDTA 500-fold, pH 7.0, 37 C, 7 d): 58.1 ± 1.4% | % Intact of 89Zr-complexes ([2]; EDTA 1000-fold, pH 5.0, 37 C, 1 h): 96.5 ± 0.2% | % Intact of 89Zr-complexes ([2]; EDTA 1000-fold, pH 5.0, 37 C, 1 d): 77.0 ± 1.3% | % Intact of 89Zr-complexes ([2]; EDTA 1000-fold, pH 5.0, 37 C, 3 d): 38.3 ± 1.5% | % Intact of 89Zr-complexes ([2]; EDTA 1000-fold, pH 5.0, 37 C, 5 d): 13.4 ± 1.6% | % Intact of 89Zr-complexes ([2]; EDTA 1000-fold, pH 5.0, 37 C, 7 d): 5.7 ± 1.0% | % Intact of 89Zr-complexes ([2]; EDTA 1000-fold, pH 7.0, 37 C, 1 h): 98.3 ± 0.1% | % Intact of 89Zr-complexes ([2]; EDTA 1000-fold, pH 7.0, 37 C, 1 d): 88.6 ± 0.4% | % Intact of 89Zr-complexes ([2]; EDTA 1000-fold, pH 7.0, 37 C, 3 d): 69.9 ± 1.8% | % Intact of 89Zr-complexes ([2]; EDTA 1000-fold, pH 7.0, 37 C, 5 d): 58.2 ± 1.3% | % Intact of 89Zr-complexes ([2]; EDTA 1000-fold, pH 7.0, 37 C, 7 d): 47.4 ± 0.9% | Radio-ITLC peak of complex in human serum [3]: 99.2%
SMILES: NC(=O)CN1CCN(CC(N)=O)CCN(CC(N)=O)CCN(CC(N)=O)CC1.[89Zr+4] [89Zr-DOTAM]
Radioactivity retention in liver and spleen tissues (Biodistribution studies): retained elevated levels of radioactivity
